One assay relates to MEF2C. Kind of assay: MEF2C protein expression by Western blot and immunocytochemistry in D2 myoblasts. Format: cell-based, human. The text has this: FIG. 2C: Representative image of ginsenoside Rd-treated myoblasts labeled by MyHC. FIG. 2E Cell average length dose-response curve of ginsenoside Rd (FIGS. 2E-2F) Western blot quantification of MEF2C protein level post Saponin Q. and ginsenoside Rd treatment alongside healthy hiPSC derived myoblasts control and DMSO negative controls, *P 5 0.05, n=3. FIG. 2G: Quantification of MEF2C expressing nuclei of saponin Q. and ginsenoside Rd-treated D2 myoblasts, n=3, *P 5 0.05. (Data=Mean±SEM, one-way ANOVA with Dunnett's multiple comparison test with DMSO negative control).
Whole-cell extracts were prepared by lysing cells on plate with RIPA buffer (CST) supplemented by proteinase inhibitor and phosphatase inhibitor cocktail (CST). Western blotting was performed according to the standard protocol using precast NuPAGE (4-12%) Bis-Tris gel (Invitrogen). Protein transfer was performed with the Bio-Rad turbo or wet/tank blotting system. Nitrocellulose membranes were incubated with primary antibodies overnight at 4° C. Membranes were then incubated with a secondary IRDye 800 conjugated anti-rabbit IgG, or Alexa Fluor 680 anti-mouse IgG and proteins were visualized and quantified using the LI-COR Odyssey Infrared Imaging System (LI-COR). Primary antibodies applied in this study were all purchased from Cell Signaling Technology except for the MEF2C antibody, which was from Sigma.
On the technique in general: In western blotting, separated proteins are transferred to a membrane and probed.

Assay [1] relates to mdx^5cv mice. Kind of assay: Quadriceps strength and susceptibility to injury. It is filed as in vivo, mouse. The text has this: (§1) All animal experiments were approved by the Institutional Animal Care and Use Committee (IACUC) of The Johns Hopkins University, School of Medicine (Baltimore, Maryland). Mdx^5cv (B6Ros.Cg-Dmdmdx-5Cv/J) were obtained from The Jackson Laboratory. Mice were maintained in a 12-h light cycle (7 am-7 pm) with ad libitum access to food and water. […] Ginsenoside Rd was suspended in saline containing 10% 1,3-propanediol as vector.
In vivo muscle physiology. Quadriceps strength (maximal isometric torque) and susceptibility to injury were assessed in vivo as described (69, 70). Briefly, animals were anaesthetized with 3-5% isoflurane and placed in a supine position. The thigh was stabilized and the ankle was secured on to a lever arm. The knee was aligned with the axis of the stepper motor (model T8904, NMB Technologies, Chatsworth, CA, USA) and a torque sensor (QWFK-8M, Sensotec, Columbus, OH, USA), and the femoral nerve was stimulated via subcutaneous needle electrodes. A custom program based on commercial software (LabView version 8.5, National Instruments, Austin, TX, USA) was used to synchronize contractile activation and the onset of forced knee flexion. The position of the leg that results in optimal muscle length has been previously described and maximum isometric torque was measured in Newton-millimeters (Nmm). Injury was induced by 15 forced lengthenings (knee flexion) superimposed onto maximal quadriceps contractions through a 40-100 degree arc of motion (with full knee extension considered 0 deg) spaced 1 min apart. Loss in maximal isometric torque was measured 5 min after the last lengthening contraction. Since the knee position, lever arm, and moment arm of the muscle are unchanged between tests, maximal isometric torque reflects maximal isometric muscle force.

The test system of assay [2] is mdx^5cv mice. Kind of assay: Forelimb grip strength. Format: in vivo, mouse. The conditions noted are these: 8 weeks treatment. As to the method:
as §1
Forelimb grip strength was measured as maximal tensile force using a computerized force transducer (Grip Strength Meter, Bioseb). Five measurements were performed for each animal and the maximum value was used for the analysis. Treadmill testing was performed using a motor-driven treadmill (Columbus Instruments). Prior to the test day, acclimatization was performed 5 times over a period of 2 weeks at 10 m/min. On the test day, mice ran at 5 m/min for 5 min (warm up) and the speed was increased 1 m/min every min up to 10 m/min. Mice were considered exhausted when they sat for more than 10 sec on a shock pad for the third time.

Consider `CC(C)=CCC[C@](C)(O[C@@H]1O[C@H](CO)[C@@H](O)[C@H](O)[C@H]1O)[C@H]1CC[C@]2(C)[C@@H]1[C@H](O)C[C@@H]1[C@@]3(C)CC[C@H](O[C@@H]4O[C@H](CO)[C@@H](O)[C@H](O)[C@H]4O[C@@H]4O[C@H](CO)[C@@H](O)[C@H](O)[C@H]4O)C(C)(C)[C@@H]3CC[C@]12C` [ginsenoside Rd], for which, in the assay on MEF2C (vs DMSO), the “levels of MEF2C protein expression (Western blot)” value is “increased”. Further, the “MEF2C expressing cells (immunocytochemistry)” value in the assay on MEF2C (vs vector control) is listed as “more MEF2C expressing cells”. Also, the “loss in muscle force after contraction-induced injury, quadriceps” value in the assay on mdx^5cv mice [1] worked out at 56±4.8%. Moreover, the “maximal isometric force generated by quadriceps muscle” value in the assay with mdx^5cv mice [1] (compared with sham control) is “no significant difference”. Further, the “improvement of forelimb grip strength” value in the assay on mdx^5cv mice [2] is 19%.

Source of the values: US12169196B2, “Human iPSC-based drug testing platform for muscular dystrophy” (The Johns Hopkins University, priority 2019, dated 2024).
